# Results as given in patent US11065230B2, “Methods and pharmaceutical compositions for the treatment of systemic mastocytosis” (INSERM (INSTITUT NATIONAL DE LA SANTE ET DE LA RECHERCHE …, priority 2016, dated 2021).
# Tests used:
# [1] = system: patients with relapsed or refractory AML; conditions: alone or in combination with conventional therapies; cited from earlier work
# [2] = system: AML blasts and leukemia-initiating cells; conditions: cited from earlier work
# [3] = compared to first generation KPT; cited from earlier work
# [4] = system: non-cancerous hematopoietic cells; conditions: both in vitro and in vivo; cited from earlier work
# [5] = system: ROSA WT MC line (SCF-dependent, without KIT mutation); assay: Cell death and proliferation in ROSA WT mast cell line; format: cell-based, human; conditions: KPT at 100 nM, 1000 nM vs DMSO; for cell proliferation (counting after trypan blue staining): 24, 48 and 72 hours; for cell death (percentage of annexin positive cells): 72 hours, SCF 100 ng/mL
# Experimental: (§1) FIG. 1. […] Upper panel: Cell death data are presented in histograms as mean percentage of annexin positive cells ±SD after 72 hours of treatment with KPT at 100 nM, 1000 nM or with DMSO (control) in ROSA WT and ROSA D816V MC lines, n=6 independent experiments. P values are determined by ANOVA Tukeys multiple comparison test. Lower panel: Proliferation curves analysis ±SD of ROSA WT and ROSA D816V MC lines assessed by counting after blue trypan staining at 24, 48 and 72 hours of treatment with KPT at 100 nM, 1000 nM, or with DMSO (control), n=3 independent experiments. P values are determined by one-way ANOVA test, *P<0.05, ***P<0,001, ****P<0,0001, ns=not significant.
# (§2) Here we show the effect of KPT-251 treatment on two different human mast cell (MC) lines : ROSA and HMC1 cell lines and on bone marrow cells depleted with erythrocytes, from a patient with aggressive mastocytosis with D816V mutation. ROSA cell lines include a SCF-dependent MC line without KIT mutation (ROSA WT) and a factor-independent MC line with KIT mutation D816V (ROSA D816V). HMC1 factor-independent MC lines include HMC1.1 with G560V KIT mutation and HMC1.2 with G560V and D816V KIT mutation.
# (§3) Human MC lines ROSA WT and ROSA D816V were treated for 72 hours with KPT-251 at 100 nM, 1000 nM, or with DMSO (control) and HMC1.1 and HMC1.2 were treated for 72 hours with KPT-251 at 100 nM, 500 nM, 1000 nM, or with DMSO (control). WT ROSA cell lines were cultured in the presence of human SCF at 100 ng/mL. Cells were plated at 0,5 million/mL at day 0. Cell death percentage was assessed by counting after trypan blue staining or Annexin V labelling analysed by flow cytometry. Proliferation was assessed by counting after trypan blue staining. Bone marrow cells from patient were depleted with erythrocytes and then treated for 7 days with KPT at 100 nm, 500 nM, 1000 nm, or with DMSO (control) in culture media supplemented with SCF at 80 ng/mL and IL6 at 50 ng/mL.
# [6] = system: normal hematopoietic stem and progenitor cells; conditions: cited from earlier work
# [7] = system: bone marrow cells from a patient with aggressive mastocytosis with D816V mutation; assay: Cell death, proliferation and histamine secretion in patient bone marrow cells; format: cell-based, human; conditions: 7 days, KPT at 100 nM, 500 nM, 1000 nM vs DMSO
# Experimental: FIG. 3. […] Upper panel: Cell death data presented as percentage of dead cells, and proliferation data, are presented in histograms. Cell death and proliferation were assessed by counting after blue trypan staining, after 7 days of treatment with KPT at 100 nM, 500 nM, 1000 nM or DMSO (control), n=1. Lower panel Histamin concentration in ng/mL was quantified in cell culture media of bone marrow cells from the patient, after 7 days of treatment with KPT at 100 nM, 500 nM, 1000 nM or DMSO (control), n=1
# as §2, §3
# [8] = system: HMC1.2 MC line (G560V and D816V KIT mutation); assay: Cell death and proliferation in HMC1.2 mast cell line; format: cell-based, human; conditions: KPT at 100 nM, 500 nM, 1000 nM vs DMSO; for cell proliferation (counting after trypan blue staining): 24, 48 and 72 hours; for cell death (percentage of dead cells, trypan blue staining): 72 hours
# Experimental: (§4) FIG. 2. […] Upper panel: Cell death data are presented in histograms as mean percentage of dead cells ±SD assessed by counting after blue trypan staining after 72 hours of treatment with KPT at 100 nM, 500 nM, 1000 nM or DMSO (control) in HMC1.1 and HMC1.2 MC lines, n=3 independent experiments. P values are determined by ANOVA Tukeys multiple comparison test. Lower panel: Proliferation curves analysis ±SD of HMC1.1 and HMC1.2 MC lines assessed by blue trypan staining at 24, 48 and 72 hours of treatment with KPT100 nM, 500 nM, KPT1000 nM, or DMSO (control), n=3 independent experiments. P values are determined by one-way ANOVA test, *P<0.05, **P<0,01, ns=not significant. Here we show the effect of KPT-251 treatment on two different human mast cell (MC) lines : ROSA and HMC1 cell lines and on bone marrow cells depleted with erythrocytes, from a patient with aggressive mastocytosis with D816V mutation. ROSA cell lines include a SCF-dependent MC line without KIT mutation (ROSA WT) and a factor-independent MC line with KIT mutation D816V (ROSA D816V). HMC1 factor-independent MC lines include HMC1.1 with […] KIT mutation and HMC1.2 with […] and D816V KIT mutation. […] Human MC lines ROSA WT and ROSA D816V were treated for 72 hours with KPT-251 at 100 nM, 1000 nM, or with DMSO (control) and HMC1.1 and HMC1.2 were treated for 72 hours with KPT-251 at 100 nM, 500 nM, 1000 nM, or with DMSO (control). WT ROSA cell lines were cultured in the presence of human SCF at 100 ng/mL. Cells were plated at 0,5 million/mL at day 0. Cell death percentage was assessed by counting after trypan blue staining or Annexin V labelling analysed by flow cytometry. Proliferation was assessed by counting after trypan blue staining. Bone marrow cells from patient were depleted with erythrocytes and then treated for 7 days with KPT at 100 nm, 500 nM, 1000 nm, or with DMSO (control) in culture media supplemented with SCF at 80 ng/mL and IL6 at 50 ng/mL.
# [9] = system: HMC1.1 MC line (G560V KIT mutation); assay: Cell death and proliferation in HMC1.1 mast cell line; format: cell-based, human; conditions: KPT at 100 nM, 500 nM, 1000 nM vs DMSO; for cell proliferation (counting after trypan blue staining): 24, 48 and 72 hours; for cell death (percentage of dead cells, trypan blue staining): 72 hours
# Experimental: as §4
# [10] = system: ROSA D816V MC line (KIT mutation D816V); assay: Cell death and proliferation in ROSA D816V mast cell line; format: cell-based, human; conditions: KPT at 100 nM, 1000 nM vs DMSO; for cell proliferation (counting after trypan blue staining): 24, 48 and 72 hours; for cell death (percentage of annexin positive cells): 72 hours
# Experimental: as §1, §2, §3
smiles,measurement,setting,value
O=C(/C=C\n1cnc(-c2cc(C(F)(F)F)cc(C(F)(F)F)c2)n1)NNc1cnccn1 [KPT-330],induction of remission,[1],active in inducing remission
NC(=O)/C(=C/n1cnc(-c2cc(C(F)(F)F)cc(C(F)(F)F)c2)n1)c1cncnc1 [KPT-8602],activity against AML blasts and leukemia-initiating cells,[2],effective activity
same,brain penetration,[3],reduced brain penetration
same,tolerance,[3],better tolerance
"FC(F)(F)c1cc(-c2ncn(/C=C\c3nnco3)n2)cc(C(F)(F)F)c1 [KPT-251, (Z)-2-(2-(3-(3,5-bis(trifluoromethyl)phenyl)-1H-1,2,4-triazol-1-yl)vinyl)-1,3,4-oxadiazol]",toxicity in non-cancerous hematopoietic cells,[4],minimal toxicity
same,cell proliferation (counting after trypan blue staining),[5],decreases proliferation
same,cell proliferation (counting after trypan blue staining),[5]; listed as KPT 251,decrease in cell proliferation
same,cell death (percentage of annexin positive cells),[5],induces cell death
same,cell death (percentage of annexin positive cells),[5]; listed as KPT 251,significant dose dependent increase in cell death
same,effect on normal hematopoietic stem and progenitor cells,[6],no significant effect
same,"cell death (percentage of dead cells, trypan blue staining)",[7]; n=1,induces cell death
same,cell proliferation (counting after trypan blue staining),[7]; n=1,decreases proliferation
same,histamine concentration in cell culture media,[7]; n=1,decreases the secretion of histamin in culture media
same,"cell death (percentage of dead cells, trypan blue staining)","[7]; n=1, listed as KPT",increase in cell death
same,cell proliferation (counting after trypan blue staining),"[7]; n=1, listed as KPT",decrease in proliferation
same,histamine concentration in cell culture media,"[7]; n=1, listed as KPT",decrease in media concentration of histamine
same,cell proliferation (counting after trypan blue staining),[8],decreases proliferation
same,cell proliferation (counting after trypan blue staining),[8]; listed as KPT 251,"significatively decreases proliferation in a dose dependent manner, more importantly in HMC1.2 cell line"
same,"cell death (percentage of dead cells, trypan blue staining)",[8],no effect on cell death
same,"cell death (percentage of dead cells, trypan blue staining)",[8]; listed as KPT 251,weak effect on cell death
same,cell proliferation (counting after trypan blue staining),[9],decreases proliferation
same,cell proliferation (counting after trypan blue staining),[9]; listed as KPT 251,significatively decreases proliferation in a dose dependent manner
same,"cell death (percentage of dead cells, trypan blue staining)",[9],no effect on cell death
same,"cell death (percentage of dead cells, trypan blue staining)",[9]; listed as KPT 251,weak effect on cell death
same,cell proliferation (counting after trypan blue staining),[10],decreases proliferation
same,cell proliferation (counting after trypan blue staining),[10]; listed as KPT 251,decrease in cell proliferation
same,cell death (percentage of annexin positive cells),[10],induces cell death
same,cell death (percentage of annexin positive cells),[10]; listed as KPT 251,significant dose dependent increase in cell death
